# Source: patent US9089572B2, “Inhibitors of p97” (California Institute of Technology, priority 2008, dated 2015)
# Assays:
# MCF7 = experiment: MTT cell growth assay, MCF7; format: cell-based; conditions: Homo sapiens, 48 or 72 h, read-out: Cell line inhibition of growth GI50 MCF7
# Method: (§1) To probe further the effect of compound 2 and related compounds 1, 3, 5, 6 and 7, various concentrations of these compounds were added to 13 different cell lines and incubated for 48 or 72 h. An MTT assay was then performed to evaluate cell growth and survival.
# HeLa = experiment: MTT cell growth assay, HeLa; format: cell-based; conditions: Homo sapiens, 48 or 72 h, read-out: Cell line inhibition of growth GI50 HeLa
# Method: as §1
# MDAMB-231 = experiment: MTT cell growth assay, MDAMB-231; format: cell-based; conditions: Homo sapiens, MDA-MB-231, 48 or 72 h, read-out: Cell line inhibition of growth GI50 MDAMB-231
# Method: as §1
# Molt4 = experiment: MTT cell growth assay, Molt4; format: cell-based; conditions: Homo sapiens, MOLT-4, 48 or 72 h, read-out: Cell line inhibition of growth GI50 Molt4
# Method: as §1
# HeLa cells = experiment: Accumulation of high molecular weight ubiquitin conjugates (anti-ubiquitin immunoblot), HeLa cells; format: cell-based; conditions: 1 h at 37° C.
# Excerpt: (§2) To evaluate whether compound 2 can target p97 activity in cells, we sought to determine whether this compound induces accumulation of high molecular weight ubiquitin conjugates, since it is known that RNAi-mediated knockdown of p97 in mammalian cells has this effect (Wojcik, C. et al. J. Cell Sci. (2004) 117, 281-292). As a positive control for this experiment, the proteasome inhibitor MG132 was used. […] The cells were then harvested, lysed, and centrifuged to generate soluble and insoluble fractions. These fractions were then immunoblotted with anti-ubiquitin antibodies to detect accumulation of high molecular weight conjugates. Blots were also probed with anti-PSTAIRE antibodies as a loading control. […] This effect is particularly pronounced in the insoluble fraction.
# (§3) To evaluate whether compound 8 can target p97 activity in cells, it was determined whether this compound induces accumulation of high molecular weight ubiquitin conjugates, since it is known that RNAi-mediated knockdown of p97 in mammalian cells has this effect (Wojcik, C. et al. J. Cell Sci. (2004) 117, 281-292). The proteasome inhibitor bortezomib (velcade) was employed as a positive control for this experiment. HeLa (FIG. 25) or RPMI8226 (FIG. 26) cells were treated with Velcade, compound 8, or a combination thereof for 1 h at 37° C. The cells were then harvested and cell lysates were immunoblotted with anti-ubiquitin antibodies to detect accumulation of high molecular weight conjugates. Blots were also probed with anti-PSTAIRE antibodies as a loading control.
# [1] = test system: HEK293 cells that stably expressed TCR-GFP; experiment: Accumulation of ERAD reporter TCR-alpha-GFP; format: cell-based; conditions: 2 h at 37° C., fluorescence microscopy
# Method: Since p97 has a well-established role in ERAD, it was also determined whether compound 2 affects the accumulation of an ERAD-reporter, TCR-alpha-GFP. HEK293 cells that stably expressed TCR-GFP were treated with MG132 (see FIG. 19), compound 1 or compound 2 (FIG. 20) at the indicated concentrations for 2 h at 37° C. prior to being imaged by fluorescence microscopy to determine TCR-GFP accumulation. […] It was thus concluded that compound 2 inhibits p97 in cells, resulting in the accumulation of both soluble and insoluble high molecular weight ubiquitin conjugates and UPS substrates whose degradation depends upon p97.
# HEK293 cells that stably expressed TCR-GFP were treated with the Velcade (FIG. 30) or compound 8 (FIG. 31) at the indicated concentrations for 2 h at 37° C. prior to being imaged by fluorescence microscopy to quantify TCR-GFP accumulation.
# RPMI8226 cells = experiment: Accumulation of high molecular weight ubiquitin conjugates (anti-ubiquitin immunoblot), RPMI8226 cells; format: cell-based; conditions: 1 h at 37° C.
# Excerpt: as §2, §3
# C522A-mp97 = biological target: T1, C522A-mp97 (Mus musculus, UniProt Q01853, C522A); experiment: In vitro ATP hydrolysis, C522A-mp97 mutant; format: biochemical, murine
# T1 construct: made in house
# Method: (§4) Compounds were tested for their ability to inhibit the ATPase activity of purified wild type murine p97 and T532C-Cdc48, a mutant of yeast Cdc48 in which the residue analogous to cysteine 522, threonine 532, was converted to cysteine.
# (§5) To determine whether cysteine 522 is necessary for inhibition of p97 by compound 2, a mutant of p97 was constructed in which cysteine 522 was converted to either alanine (C522A-mp97) or threonine (C522T-mp97). The IC50 values of compound 2 were measured the against various enzymes during a 20-minute preincubation (see Table 2). Mutation of cysteine 522 in p97 to either alanine or threonine decreased sensitivity to compound 2 by greater than 100-fold. On the other hand, yeast Cdc48, which normally is quite resistant to compound 2, became nearly 30-fold more sensitive to the compound upon introduction of a cysteine in place of threonine 532.
# [2] = test system: HeLa cell line that stably expresses UbG76V-GFP; experiment: Accumulation of UbG76V-GFP in HeLa cells (fluorescence microscopy); format: cell-based
# Method: As a control, the same cells were treated with the proteasome inhibitor MG132. In the latter set of experiments, a HeLa cell line that stably expresses UbG76V-GFP was transfected with either wild type (WT), D1 mutant (E305Q), D2 mutant (E578Q) or E305Q, E578Q double mutant (QQ) murine 97-pcDNA4.1 plasmid (0.05 μg/100 μL) in a 96-well plate. After 23 h, the intensity of UbG76V-GFP signal was measured on a Molecular Devices ImageXpress automated fluorescence microscope. […] The direct accumulation of Ub-G76V-GFP caused by compound 2 at 25 μM is 4-fold less than that caused by MG132 at 2 μM. This is likely due to the fact that only fully folded Ub-G76V-GFP should require p97 for degradation by the proteasome.
# As a second test of whether compound 8 can inhibit p97 in vivo, it was evaluated whether it can cause accumulation of the UbG76V-GFP reporter. A HeLa cell line that stably expresses UbG76V-GFP was treated with compound 8 for 1 h at 37° C., and was then evaluated by fluorescence microscopy. As a control, the same cells were treated with the proteasome inhibitor MG132. […] The level of GFP fluorescence was quantified in cells treated with compound 8 at different doses and for different periods of time (FIG. 28).
# T532C-Cdc48 = T532C-Cdc48 (Saccharomyces cerevisiae, UniProt P25694, T532C); experiment: In vitro ATP hydrolysis (malachite green ATPase assay), T532C-Cdc48; format: biochemical, yeast
# Method: as §4, §5
# Human 26S proteasome = experiment: Hydrolysis of fluorogenic proteasome substrate LLVY-AMC by purified 26S proteasome; format: biochemical; conditions: 19 nM 26S proteasome, 30 min preincubation, 60 μM LLVY-AMC
# Method: Purified human 26S proteasome (19 nM) was incubated with either DMSO, MG132 or compound 2 for 30 min at room temperature and fluorogenic proteasome substrate LLVY-AMC (60 μM) was added to initiate the reaction. Fluorescence intensity was monitored every 3 min over 30 min.
# T532C-Cdc48, sequence (P25694 whole entry T532C): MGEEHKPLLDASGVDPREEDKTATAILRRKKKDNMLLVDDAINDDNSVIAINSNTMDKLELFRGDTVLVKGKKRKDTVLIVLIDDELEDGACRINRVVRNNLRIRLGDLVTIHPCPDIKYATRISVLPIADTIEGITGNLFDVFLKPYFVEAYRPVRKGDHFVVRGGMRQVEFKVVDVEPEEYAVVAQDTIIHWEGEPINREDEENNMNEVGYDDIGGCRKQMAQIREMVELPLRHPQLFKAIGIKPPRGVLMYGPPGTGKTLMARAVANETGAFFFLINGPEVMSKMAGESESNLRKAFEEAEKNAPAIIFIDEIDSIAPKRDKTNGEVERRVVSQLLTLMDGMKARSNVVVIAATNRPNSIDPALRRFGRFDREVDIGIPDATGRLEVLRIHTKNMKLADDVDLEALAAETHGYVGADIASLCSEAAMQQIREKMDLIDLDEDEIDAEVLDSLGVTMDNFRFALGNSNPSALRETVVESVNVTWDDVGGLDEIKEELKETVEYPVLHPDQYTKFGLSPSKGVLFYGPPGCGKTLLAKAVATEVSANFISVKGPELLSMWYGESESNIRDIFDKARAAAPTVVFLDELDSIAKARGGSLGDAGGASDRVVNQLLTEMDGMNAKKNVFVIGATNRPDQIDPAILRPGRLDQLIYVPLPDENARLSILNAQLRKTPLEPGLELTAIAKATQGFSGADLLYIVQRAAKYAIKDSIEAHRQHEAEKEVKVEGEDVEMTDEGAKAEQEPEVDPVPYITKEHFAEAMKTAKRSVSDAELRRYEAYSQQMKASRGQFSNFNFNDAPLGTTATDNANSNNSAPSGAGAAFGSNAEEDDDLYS
# T1 sequence (Q01853 whole entry C522A): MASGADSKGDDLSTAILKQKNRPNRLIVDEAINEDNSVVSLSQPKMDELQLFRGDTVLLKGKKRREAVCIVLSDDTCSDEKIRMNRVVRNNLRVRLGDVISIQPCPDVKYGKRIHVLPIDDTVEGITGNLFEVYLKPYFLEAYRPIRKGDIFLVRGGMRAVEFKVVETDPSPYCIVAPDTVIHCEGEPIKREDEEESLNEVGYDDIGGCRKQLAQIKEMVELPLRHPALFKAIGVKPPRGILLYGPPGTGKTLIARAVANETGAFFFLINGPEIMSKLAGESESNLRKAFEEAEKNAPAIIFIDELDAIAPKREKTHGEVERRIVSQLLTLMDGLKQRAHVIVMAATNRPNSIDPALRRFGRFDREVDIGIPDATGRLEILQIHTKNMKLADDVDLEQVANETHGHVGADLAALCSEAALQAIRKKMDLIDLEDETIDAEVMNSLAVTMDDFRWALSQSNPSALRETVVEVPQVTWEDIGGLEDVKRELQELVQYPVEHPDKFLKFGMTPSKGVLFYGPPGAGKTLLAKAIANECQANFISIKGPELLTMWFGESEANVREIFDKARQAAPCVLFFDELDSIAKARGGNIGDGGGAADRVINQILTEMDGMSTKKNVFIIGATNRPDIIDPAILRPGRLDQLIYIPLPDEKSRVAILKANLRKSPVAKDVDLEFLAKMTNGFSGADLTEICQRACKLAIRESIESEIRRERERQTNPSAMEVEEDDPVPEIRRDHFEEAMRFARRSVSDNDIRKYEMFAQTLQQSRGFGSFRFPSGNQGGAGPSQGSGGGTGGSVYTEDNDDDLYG
smiles,measurement,setting,value
C=CC(=O)Nc1ncnc2c1c(-c1ccccc1)nn2C(C)(C)C [Compound 2],GI50,MCF7,500 ± 100 nM
same,GI50,HeLa,400 ± 300 nM
same,GI50,MDAMB-231,1700 ± 300 nM
same,GI50,Molt4,1100 ± 500 nM
same,"accumulation of high molecular weight ubiquitin conjugates, HeLa cells",HeLa cells,caused accumulation of high molecular weight ubiquitin conjugates
same,accumulation of TCR-alpha-GFP,[1],substantial TCR-alpha-GFP accumulation
same,"accumulation of high molecular weight ubiquitin conjugates, RPMI8226 cells",RPMI8226 cells,caused accumulation of high molecular weight ubiquitin conjugates
same,IC50,C522A-mp97; 20-minute preincubation,110000 ± 33000 nM
same,decrease in sensitivity on mutation of cysteine 522 in p97 to alanine or threonine,C522A-mp97; C522A or C522T vs wild type p97,greater than 100 fold
same,accumulation of UbG76V-GFP,"[2]; 4 hours at 37° C., fluorescence microscopy",caused accumulation of UbG76V-GFP
same,"direct accumulation of Ub-G76V-GFP, less than that caused by MG132 at 2 μM",[2]; compound at 25 μM vs MG132 at 2 μM,4 fold
same,IC50,T532C-Cdc48,14000 ± 5000 nM
same,increase in sensitivity of yeast Cdc48 on introduction of cysteine in place of threonine 532,T532C-Cdc48; T532C-Cdc48 vs yeast Cdc48,~30 fold
same,inhibition of hydrolysis of proteasome substrate LLVY-AMC,Human 26S proteasome,does not inhibit hydrolysis
